Results from article PMC5927802, “Pharmacokinetics, safety, and tolerability of the 2‐ and 3‐direct‐acting antiviral combination of AL‐335, odalasvir, and simeprevir in healthy subjects” (Pharmacology Research & Perspectives, 2018).
Entries after “also recorded” stand apart in the source; their conditions may differ. Where two headings read alike, the source gives them in different places.

Key:
[1] = Plasma pharmacokinetics, Phase I open‐label two‐group fixed‐sequence drug‐drug interaction study; conditions: for C min / concentration at 23.9 h / concentration at 24 h / Cmax: mean (SD); for T last / Tmax: median (range); for AUC0‐24 h LSM ratio / C min LSM ratio / Cmax LSM ratio: point estimate (90% CI); for concentration at 23.9 h / concentration at 24 h / Cmax / Tmax: human, plasma, oral; for concentration at 23.9 h / concentration at 24 h: C last; for Tmax: T max
Excerpt: This was an open‐label, two‐group, fixed‐sequence study conducted at a single study center in Rennes, France (Biotrial). A two‐group, fixed‐sequence study design was chosen as this was deemed to be the most efficient way to evaluate the effect of simeprevir with/without odalasvir on AL‐335; and vice versa (Group 1) and the effect of odalasvir with/without simeprevir on AL‐335; and vice versa (Group 2). Thus, this study design had the potential to gather both 2‐way and 3‐way DDIs. For both groups, the study consisted of a screening period, a study period, and two follow‐up visits. The study was authorized by the French National Agency for the Safety of Medicine and Health Products (ANSM) and was approved by an Independent Ethics Committee (Comité de Protection des Personnes [CPP] Ouest VI, Brest, France; Reference CPP Ouest 6–CPP 888/MS1), and was conducted in accordance with the principles of the Declaration of Helsinki and International Conference on Harmonization. All subjects provided written informed consent to participate. Drug and molecular target nomenclature in this manuscript conforms to the British Journal of Pharmacology's Concise Guide to Pharmacology 2017/18.19
Subjects in Group 1 received simeprevir 150 mg QD on days 4‐23, odalasvir 150 mg (loading dose) on day 14, odalasvir 50 mg QD on days 15‐23, and AL‐335 800 mg QD on days 1‐3, 11‐13, and 21‐23. Subjects in Group 2 received odalasvir 150 mg (loading dose) on day 4, odalasvir 50 mg QD on days 5‐23, simeprevir 150 mg QD on days 14‐23, and AL‐335 800 mg QD on days 1‐3, 11‐13, and 21‐23. […] A minimum of 10 days was considered sufficient for both odalasvir and simeprevir to reach steady‐state.
Subjects were assigned sequentially to Group 1 then to Group 2 after confirming eligibility.
As this was an […] pharmacokinetic study, blood samples for pharmacokinetic analysis were collected predose and at 0.25, 0.5, 1, 2, 3, 4, 6, 8, 10, 12, and 24 hours postdose on days 3, 13, and 23 for determination of AL‐335, ALS‐022399, and ALS‐022227 plasma concentrations (Groups 1 and 2). For simeprevir, blood samples for determination of simeprevir plasma concentrations were taken at the same time points but on days 10, 13, 20, and 23 (Group 1) or days 20 and 23 (Group 2). Blood samples for the determination of odalasvir plasma concentrations were collected predose and at 1, 3, 4, 5, 6, 7, 8, 9, 10, 12, 16, and 24 hours postdose on days 20 and 23 (Group 1) or days 10, 13, 20, and 23 (Group 2), with two further samples also collected on the day 7 and day 28 follow‐up assessments (both groups).
Plasma concentrations of AL‐335, ALS‐022399, ALS‐022227, odalasvir, and simeprevir were determined using validated liquid chromatography‐tandem mass spectrometry methods. Dichlorvos solution was added to blood samples from AL‐335‐treated subjects to stabilize AL‐335 and its metabolites (25 μL of 5 mmol/L dichlorvos into 1 mL blood). The lower limit of quantification was 1 ng/mL, 2 ng/mL, and 5 ng/mL for AL‐335, ALS‐022399, and ALS‐022227, respectively, 1 ng/mL for odalasvir, and 2 ng/mL for simeprevir.
Pharmacokinetic analyses were performed on all subjects with available profiles who received at least one dose of study drug without any protocol deviation affecting pharmacokinetic evaluation. […] Secondary parameters were last observed plasma concentration, apparent elimination half‐life, time of the maximum observed plasma concentration (T max), and time to last measurable plasma concentration (T last).

[2] = test system: CYP3A; design: method as in PMID 26353895; conditions: cited from earlier work
[3] = test system: CYP1A2; design: method as in PMID 26353895; conditions: cited from earlier work
[4] = test system: breast cancer resistance protein (BCRP); conditions: not told; cited from earlier work
[5] = test system: OATP1B1/1B3; conditions: cited from earlier work
[6] = Group 1 Day 13, SMV + AL‐335 versus SMV alone
[7] = Group 1 Day 20, SMV + ODV versus SMV alone
[8] = Group 1 Day 23, SMV + AL‐335 + ODV versus SMV alone
[9] = Group 1 Day 23, SMV + AL‐335 + ODV
[10] = Group 2 Day 23, SMV + AL‐335 + ODV

C min ([1]; Group 1 Day 10, SMV alone): 833 (856) ng/mL
T last ([1]; Group 1 Day 10, SMV alone): 23.9 (23.9‐24.0) h
C min ([1]; Group 1 Day 13, SMV + AL‐335): 857 (1129) ng/mL
T last ([1]; Group 1 Day 13, SMV + AL‐335): 23.9 (23.9‐24.0) h
AUC0‐24 h LSM ratio [1, 6]: 0.93 (0.83‐1.05)
C min LSM ratio [1, 6]: 0.88 (0.76‐1.02)
Cmax LSM ratio [1, 6]: 0.89 (0.79‐1.00)
AUC0‐24 h LSM ratio [1, 7]: 1.76 (1.53‐2.01)
C min LSM ratio [1, 7]: 1.41 (1.01‐1.99)
Cmax LSM ratio [1, 7]: 1.66 (1.36‐2.01)
C min ([1]; Group 1 Day 20, SMV + ODV): 1446 (2064) ng/mL
T last ([1]; Group 1 Day 20, SMV + ODV): 23.9 (23.9‐24.0) h
AUC0‐24 h LSM ratio [1, 8]: 1.60 (1.38‐1.85)
C min LSM ratio [1, 8]: 1.82 (1.52‐2.19)
Cmax LSM ratio [1, 8]: 1.43 (1.23‐1.66)
C min [1, 9]: 1910 (2441) ng/mL
T last [1, 9]: 24.0 (24.0‐24.0) h
C min ([1]; Group 2 Day 20, SMV + ODV): 1274 (1035) ng/mL
T last ([1]; Group 2 Day 20, SMV + ODV): 23.9 (23.8‐24.1) h
C min [1, 10]: 1847 (2313) ng/mL
T last [1, 10]: 24.0 (24.0‐24.1) h
concentration at 23.9 h ([1]; 150 mg, Group 1 Day 10, SMV alone): 981 ng/mL
concentration at 23.9 h ([1]; Group 1 Day 13, SMV + AL‐335): 1020 ng/mL
concentration at 23.9 h ([1]; Group 1 Day 20, SMV + ODV): 2340 ng/mL
concentration at 24 h [1, 9]: 2390 ng/mL
concentration at 23.9 h ([1]; Group 2 Day 20, SMV + ODV): 2140 ng/mL
concentration at 24 h [1, 10]: 2590 ng/mL
Cmax ([1]; Group 1 Day 10, SMV alone): 2960 ng/mL
Cmax ([1]; Group 1 Day 13, SMV + AL‐335): 2760 ng/mL
Cmax ([1]; Group 1 Day 20, SMV + ODV): 5220 ng/mL
Cmax [1, 9]: 4740 ng/mL
Cmax ([1]; Group 2 Day 20, SMV + ODV): 4530 ng/mL
Cmax [1, 10]: 4950 ng/mL
Tmax ([1]; Group 1 Day 10, SMV alone): 6 h
Tmax ([1]; Group 1 Day 13, SMV + AL‐335): 6 h
Tmax ([1]; Group 1 Day 20, SMV + ODV): 6 h
Tmax [1, 9]: 6 h
Tmax ([1]; Group 2 Day 20, SMV + ODV): 6 h
Tmax [1, 10]: 8 h
difference in T max ([1]; simeprevir coadministered with odalasvir): No clinically relevant difference
Compound: COc1ccc2c(O[C@@H]3C[C@H]4C(=O)N[C@]5(C(=O)NS(=O)(=O)C6CC6)C[C@H]5/C=C\CCCCN(C)C(=O)[C@@H]4C3)cc(-c3nc(C(C)C)cs3)nc2c1C [simeprevir]
effect of AL‐335 on pharmacokinetics ([1]; AL‐335 800 mg QD coadministered): no effect; also recorded: did not alter; also recorded: no impact
CYP3A inhibition [2]: mild inhibitor of intestinal (not hepatic) CYP3A
CYP1A2 inhibition [3]: mild but not clinically relevant inhibitor
BCRP substrate / inhibitor status [4]: substrate and inhibitor
OATP1B1/3 substrate / inhibitor status [5]: clinically confirmed OATP1B1 inhibitor
OATP1B1/3 substrate / inhibitor status ([5]; listed as Simeprevir): substrate and inhibitor
